# Results reported in the NIST ThermoML archive (doi:10.1021/je500881x).
# ± gives the expanded uncertainty stated by the source.
# Test: refractive index (Na D-line) (dimensionless); wn = mass fraction of the nth substance listed
# Conditions: 288.15 K, 101 kPa, Liquid, Standard Abbe refractometry
compound,measurement,setting,value
[Br-].[Br-].[Ca+2] [calcium bromide] + O,refractive index,w1 = 0.5794,1.4892 ± 0.0004
[Br-].[Na+] [sodium bromide] + O,refractive index,w1 = 0.4704,1.4196 ± 0.0004
